How the values were obtained:
Assay type in all cases: biochemical
[1] = test system: α-isomaltosyl-transferring enzyme from Bacillus globisporus N75; experiment: Action on saccharides (substrates, TLC); design: key: −: there was found no substrate change before and after the enzymatic reaction; +: there were found both the reduction of substrate and the formation of cyclotetrasaccharide after the enzymatic reaction; details: 2 units/g substrate, 2% (w/v) substrate, 30° C., pH 6.0, 24 hours
Method in brief: (§1)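 TLC detection used sulfuric acid-methanol coloration for all sugars and diphenylamine-aniline for reducing ones, after development in n-butanol/pyridine/water (6:4:1). Reactions contained 2% (w/v) substrate and 2 units/g substrate of purified enzyme, incubated 24 hours at 30° C., pH 6.0.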

[2] = test system: α-isomaltosyl-transferring enzyme from Arthrobacter globiformis A19; experiment: Action on saccharides (substrates, TLC); design: key: −: there was found no substrate change before and after the enzymatic reaction; +: there were found both the reduction of substrate and the formation of cyclotetrasaccharide after the enzymatic reaction; details: partially purified enzyme, 2 units/g substrate, 2% (w/v) substrate, 30° C., pH 6.0, 24 hours
Method in brief: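 Each candidate saccharide, from malto- and isomalto-oligosaccharides to cyclodextrins, starch, pullulan and dextran, was prepared at 2% (w/v). Two units/g substrate of enzyme were added, then the mixture was held at pH 6.0, 30° C., 24 hours. Samples were then analysed by silica gel TLC.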

[3] = test system: α-isomaltosyl-transferring enzyme from Arthrobacter ramosus S1; experiment: Action on saccharides (substrates, TLC); design: key: −: there was found no substrate change before and after the enzymatic reaction; +: there were found both the reduction of substrate and the formation of cyclotetrasaccharide after the enzymatic reaction; details: 2 units/g substrate, 2% (w/v) substrate, 30° C., pH 6.0, 24 hours
Method in brief: as §1

[4] = test system: α-isomaltosyl-transferring enzyme from Bacillus globisporus C9; experiment: Action on saccharides (substrates, TLC); design: key: −: there was found no substrate change before and after the enzymatic reaction; +: there were found both the reduction of substrate and the formation of cyclotetrasaccharide after the enzymatic reaction; details: 2 units/g substrate, 2% (w/v) substrate, 30° C., pH 6.0, 24 hours
Method in brief: as §1

[5] = test system: α-isomaltosyl-transferring enzyme from Bacillus globisporus C11; experiment: Action on saccharides (substrates, TLC); design: key: −: there was found no substrate change before and after the enzymatic reaction; +: there were found both the reduction of substrate and the formation of cyclotetrasaccharide after the enzymatic reaction; details: 2 units/g substrate, 2% (w/v) substrate, 30° C., pH 6.0, 24 hours
Method in brief: as §1

[6] = test system: α-isomaltosyl-transferring enzyme from Bacillus globisporus C9; experiment: Formation of reducing power from high molecular glucans; details: Enzyme of Strain C9
Method: (§2) In the above experiment, no detectable amount of a lower molecular weight saccharide such as cyclotetrasaccharide detectable on TLC was formed from soluble starch, pullulan and dextran as high molecular glucans. The following test was carried out to confirm that the α-isomaltosyl-transferring enzyme of the present invention neither increase the reducing power of the above high molecular glucans nor hydrolyze them. To a solution of soluble starch, pullulan or dextran was added 12 units/g substrate of a purified specimen of α-isomaltosyl-transferring enzyme from either Bacillus globisporus C9 obtained by the method in Experiment 4, Bacillus globisporus C11 obtained by the method in Experiment 7, Bacillus globisporus N75 obtained by the method in Experiment 11, or Arthrobacter ramosus S1 obtained by the method in Experiment 15. […] The reducing saccharide contents and the total sugar contents in the resulting reaction mixtures after the enzymatic reactions were respectively quantified by the Somogyi-Nelson's method and the anthrone-sulfuric acid reaction method. The percentage of forming reducing power was calculated by the following equation, and the results are in Table 13:
(§3) [formula] [formula] AR: Reducing sugar content after enzymatic reaction. AT: Total sugar content after enzymatic reaction. BR: Reducing sugar content before enzymatic reaction. BT: Total sugar content before enzymatic reaction.

[7] = test system: α-isomaltosyl-transferring enzyme from Bacillus globisporus C11; experiment: as above; details: Enzyme of Strain C11
Method: as §2, §3

[8] = test system: α-isomaltosyl-transferring enzyme from Bacillus globisporus N75; experiment: as above; details: Enzyme of Strain N75
Method: (§4) In the above experiment, no detectable amount of a lower molecular weight saccharide such as cyclotetrasaccharide detectable on TLC was formed from soluble starch, pullulan and dextran as high molecular glucans. The following test was carried out to confirm that the α-isomaltosyl-transferring enzyme of the present invention neither increase the reducing power of the above high molecular glucans nor hydrolyze them. To a solution of soluble starch, pullulan or dextran was added 12 units/g substrate of a purified specimen of α-isomaltosyl-transferring enzyme from either Bacillus globisporus C9 obtained by the method in Experiment 4, Bacillus globisporus C11 obtained by the method in Experiment 7, Bacillus globisporus N75 obtained by the method in Experiment 11, or Arthrobacter ramosus S1 obtained by the method in Experiment 15. The resulting each solution was adjusted to give a substrate concentration of one percent (w/v) and incubated at 35° C. and pH 6.0 for four hours. The reducing saccharide contents and the total sugar contents in the resulting reaction mixtures after the enzymatic reactions were respectively quantified by the Somogyi-Nelson's method and the anthrone-sulfuric acid reaction method. The percentage of forming reducing power was calculated by the following equation, and the results are in Table 13:
as §3

[9] = test system: α-isomaltosyl-transferring enzyme from Arthrobacter ramosus S1; experiment: as above; details: printed Enzyme of Strain N75 a second time
Method: as §4, §3

[10] = test system: α-isomaltosyl-transferring enzyme from Bacillus globisporus C9; experiment: Formation of cyclotetrasaccharide from components A, B and C; details: Enzyme of Strain C9, 35° C., 8 hours
Method: (§5) Using a purified α-isomaltosyl-transferring enzyme, the formation of cyclotetrasaccharide from the above-identified components A, B and C was examined as follows: One percent (w/v) of an aqueous solution (pH 6.0) of the component A (3-O-α-isomaltosylpanose represented by Chemical Formula 1), the component B (4-O-α-isomaltosylpanose represented by Chemical Formula 2), or the component C (1-O-α-isomaltosyl-β-panoside represented by Chemical Formula 3) was prepared into a substrate solution. To each of the resulting solutions was added one unit/g substrate of a purified specimen of α-isomaltosyl-transferring enzyme from Bacillus globisporus C9 obtained by the method in Experiment 4, or Bacillus globisporus C11 obtained by the method in Experiment 7, followed by enzymatic reaction at 35° C. for eight hours. Thereafter, the resulting mixtures were analyzed on HPLC for saccharide composition (%).

[11] = test system: α-isomaltosyl-transferring enzyme from Bacillus globisporus C11; experiment: as above; details: Enzyme of Strain C11, 35° C., 8 hours
Method: as §5

[12] = 0 hr, 12 units/g substrate, 1% (w/v), 35° C., pH 6.0
[13] = 1% (w/v) substrate, pH 6.0, 1 unit/g substrate

Molecule	Enzymatic action for forming cyclotetrasaccharide, Enzyme of Strain N75 [1]	Enzymatic action for forming cyclotetrasaccharide, Enzyme of Strain A19 [2]	Enzymatic action for forming cyclotetrasaccharide, Enzyme of Strain S1 [3]	Enzymatic action for forming cyclotetrasaccharide, Enzyme of Strain C9 [4]	Enzymatic action for forming cyclotetrasaccharide, Enzyme of Strain C11 [5]	Percentage of forming reducing power [6, 12] [%]	Percentage of forming reducing power ([6]; 1 hr) [%]	Percentage of forming reducing power ([6]; 2 hr) [%]	Percentage of forming reducing power ([6]; 3 hr) [%]	Percentage of forming reducing power ([6]; 4 hr) [%]	Percentage of forming reducing power [7, 12] [%]	Percentage of forming reducing power ([7]; 1 hr) [%]	Percentage of forming reducing power ([7]; 2 hr) [%]	Percentage of forming reducing power ([7]; 3 hr) [%]	Percentage of forming reducing power ([7]; 4 hr) [%]	Percentage of forming reducing power [8, 12] [%]	Percentage of forming reducing power ([8]; 1 hr) [%]	Percentage of forming reducing power ([8]; 2 hr) [%]	Percentage of forming reducing power ([8]; 3 hr) [%]	Percentage of forming reducing power ([8]; 4 hr) [%]	also measured
dextran	−	−	−	−	−	0.0	0.0	0.0	0.1	0.0	0.0	0.0	0.0	0.0	0.0	0.0	0.0	0.0	0.0	0.0	Percentage of forming reducing power [9, 12]: 0.0%; Percentage of forming reducing power ([9]; 1 hr): 0.0%; Percentage of forming reducing power ([9]; 2 hr): 0.0%; Percentage of forming reducing power ([9]; 3 hr): 0.0%; Percentage of forming reducing power ([9]; 4 hr): 0.0%
OC[C@H]1O[C@H](OC[C@H]2O[C@H](O[C@@H]3O[C@H](CO)[C@@H](O[C@H]4O[C@H](CO[C@H]5O[C@H](CO)[C@@H](O)[C@H](O)[C@H]5O)[C@@H](O)[C@H](O)[C@H]4O)[C@H](O)[C@H]3O)[C@H](O)[C@@H](O)[C@@H]2O)[C@H](O)[C@@H](O)[C@@H]1O [Component C, 1-O-α-isomaltosyl-β-panoside]																					Saccharide composition, remaining Substrate [10, 13]: 55.8%; Saccharide composition, Cyclotetrasaccharide [10]: 6.0%; Saccharide composition, Glucose [10]: 0.2%; Saccharide composition, Others [10]: 38.0%; Saccharide composition, remaining Substrate [11, 13]: 56.0%; Saccharide composition, Cyclotetrasaccharide [11]: 5.9%; Saccharide composition, Glucose [11]: 0.2%; Saccharide composition, Others [11]: 37.9%
pullulan	−	−	−	−	−	0.0	0.0	0.0	0.0	0.0	0.0	0.0	0.0	0.0	0.0	0.0	0.0	0.0	0.0	0.0	Percentage of forming reducing power [9, 12]: 0.0%; Percentage of forming reducing power ([9]; 1 hr): 0.0%; Percentage of forming reducing power ([9]; 2 hr): 0.0%; Percentage of forming reducing power ([9]; 3 hr): 0.0%; Percentage of forming reducing power ([9]; 4 hr): 0.0%
soluble starch	−	−	−	−	−	0.0	0.0	0.0	0.0	0.0	0.0	0.1	0.0	0.0	0.0	0.0	0.0	0.0	0.0	0.0	Percentage of forming reducing power [9, 12]: 0.0%; Percentage of forming reducing power ([9]; 1 hr): 0.0%; Percentage of forming reducing power ([9]; 2 hr): 0.0%; Percentage of forming reducing power ([9]; 3 hr): 0.0%; Percentage of forming reducing power ([9]; 4 hr): 0.0%
